Source: patent US10300027B2, “Effective sensitizing dose of a gelled immunomodulating topical composition” (Phio Pharmaceuticals Corp., priority 2010, dated 2019)
Several values for one entry are separate records, joined by “and”; a condition that tells them apart may be missing. Identical values can stand only once.

Experiments:
[1] = general statement, no test described; cited from earlier work
non-genital warts [2] = test: Example 2: randomized, double-blind, placebo control study, 0.04% DPCP gel twice a week for non-genital warts; format: in vivo, human; set-up: key to Clearance Score: 3 points=Complete clearance; 2 points=partial clearance: >50% reduction in the area of all treated wart; 1 point=partial eradication: <50% reduction in the area of all treated warts; 0 points=treatment failure: complete or partial eradication not achieved; conditions: for Clearance Score: per wart of one subject
Description: Institutional review board approval was obtained for this study, which was performed using Good Clinical Practice Guidelines and was compliant with the Code of Federal Regulation of the US Food and Drug Administration. A single center, 24 subject, randomized, double-blind, placebo control study using low dose DPCP in a non-volatile vehicle for the treatment of non-genital warts of established.
Patients are assigned to a treatment or placebo group in a 2:1 fashion. The two study gels are identical in appearance. Both groups are sensitized with 0.1 ml of 0.4% DPCP gel which is applied to the inner arm and washed off in 24 hours. Fourteen days after the sensitization dose, 0.1 ml of 0.04% DPCP gel or placebo is applied to each wart, up to a total of 4 warts, […] for 7 consecutive weeks (Day 14, 21, 28, 35, 42, 49, 56, […]). A final follow-up examination is performed on day 77. Patients are assessed at baseline and during office visits on days 14, 28, and 63 and on the day 77 follow up visit.
Efficacy is based on Lesion Surface Area. The size of each qualifying verruca wart is determined at each visit by measuring the longest dimension (long axis) and the corresponding widest dimension (90 to the long axis).
Investigator's Global Assessment Score (IGAS) is calculated based upon the following 4 point scale: 3 points=Complete clearance; 2 points=partial clearance: >50% reduction in the area of all treated wart; 1 point=partial eradication: <50% reduction in the area of all treated warts; 0 points=treatment failure: complete or partial eradication not achieved.
Immunotherapeutic responses are characterized by grading the erythema, edema, induration, and scaling on a four-point scale: 0 (none) to 4 severe at each visit.
(§1) Efficacy endpoints are determined based on the percent of patients achieving complete and partial eradication as measured by IGAS and reductions in warts lesion surface area. Subjects are assessed for the extent of their immunotherapeutic response to treatment based upon the degree of erythema, edema, induration and scaling. Safety is evaluated at each visit by recording and grading adverse events and ease of ambulation 4 point grading system is used.
All subjects (both treated and placebo groups) are sensitized with the initial sensitizing dose of 0.4% DPCP gel applied directly to one target wart and to the inner aspect of the right arm and then covered with an occlusive adhesive bandage pad for 24 hours.
The Investigator can determine if sensitization occurred at either of the application sites. If on day 14, the first “treatment visit”, no visible evidence of skin sensitization is observed then the subject can be dropped from the study. If on day 14 the investigator determines that sensitization has occurred, than the first treatment dose using the challenge dose (0.04% DPCP gel or placebo) randomly assigned upon enrollment can be administered by the investigator to all target warts and then covered with an occlusive adhesive bandage pad for 24 hours.
The patient is provided with a tube containing the appropriate challenge product (0.04% DPCP gel or placebo) with detailed instructions on how to apply the product two times per week and the proper handling and storage of the product between applications.
Two times per week the patient can apply the treatment dose (0.04% DPCP gel or placebo) to all target warts and then cover with an occlusive adhesive bandage pad for 24 hours.
The Investigator can apply the treatment dose (0.04% DPCP gel or placebo) to all target warts and then cover with an occlusive adhesive bandage pad for 24 hours.
The Investigator can apply the treatment dose (0.04% DPCP gel or placebo) to all target warts and then cover with an occlusive adhesive bandage pad for 24 hours. […] This is the final treatment. The patient is instructed to stop at home treatments and should return any unused gel. […]

non-genital warts [3] = test: Example 1: randomized, double-blind, placebo control study of low dose DPCP gel for non-genital warts; format: in vivo, human
Description: Patients were initially sensitized with 0.4% DPCP gel at the primary wart site. Approximately 14 days later and weekly thereafter for various periods, a challenge dose is then applied. A challenge dose of 0.04% DPCP was employed. The DPCP used was incorporated in a unique blend of surfactants, a viscosity agent, and a preservative.
A single center, randomized, double-blind, placebo control study using low dose DPCP in a non-volatile vehicle for the treatment of non-genital warts was conducted. Patients were assigned to a treatment or placebo group in a 2:1 fashion. The two study gels were identical in appearance. The treatment group was sensitized with 0.1 ml of 0.4% DPCP gel which was applied to the inner arm and washed off in 24 hours. Fourteen days after the sensitization dose, 0.1 ml of 0.04% DPCP gel was applied to each wart, up to a total of 4 warts, for 7 consecutive weeks (Day 14, 21, 28, 35, 42, 49, 56). A final follow-up examination was performed on day 70. Patients were assessed at baseline and during each of 7 week treatment visits and on day 70 follow up.
Efficacy was based on Lesion Surface Area. The size of each qualifying verruca wart was determined at each visit by measuring the longest dimension (long axis) and the corresponding widest dimension (90 to the long axis).
Immunotherapeutic responses were characterized by grading the erythema, edema, induration, and scaling on a four-point scale: 0 (none) to 4 severe at each visit.
as §1, with “endpoints were” for “endpoints are”, “Subjects were” for “Subjects are”, “Safety was” for “Safety is”, “system was” for “system is”
Adults 18-75 years of age in general good health with at least one non-genital cutaneous wart 5-20 mm in size were eligible for participation in the study. […] Pregnant or nursing women were excluded. Patients with unstable medical condition or history of immunosuppression were excluded. Use of systemic steroids, immunosuppressants, immunomodulators or cimetidine was not allowed for 4 weeks prior to enrollment. Any prior wart therapy was not allowed for 4 weeks. […] Patients could not be actively enrolled in another clinical trial within the previous 30 days.

[4] = 0.4% sensitizing dose, 0.04% challenge dose twice a week
[5] = 0.4% sensitizing dose, 0.04% challenge dose weekly

SMILES: O=c1c(-c2ccccc2)c1-c1ccccc1 [DPCP, diphenylcyclopropenone]
- mutagenicity, teratogenicity and organ toxicity [1]: not mutagenic, teratogenic and has no organ toxicity
- sensitization (non-genital warts [2]; 0.4% DPCP sensitization dose given to both treatment and placebo group, 7 subjects): all were successfully sensitized
- side effects reported (non-genital warts [2]; [4]): No significant side effects were reported other than skin rash at the sensitization site
- tolerability reported by patients (non-genital warts [2]; [4]): highly tolerable
- treated warts that achieved greater than 50% clearance (non-genital warts [2]; DPCP group, 1 of 6 warts): 16%
- treated warts that exhibited no clearance (non-genital warts [2]; DPCP group, 1 of 6 warts): 16%
- treated warts with complete clearance (non-genital warts [2]; DPCP group, 4/6 warts, 0.04% gel twice a week): 67%
- subjects who obtained a clinical response/improvement (non-genital warts [2]; DPCP group, 4 of 5 subjects, 0.04% gel twice a week for 7 weeks): 80%
- Clearance Score (non-genital warts [2]; at 5 weeks, 0.04% gel twice a week): 5 weeks + 3
- Clearance Score (non-genital warts [2]; at 7 weeks, 0.04% gel twice a week, listed as DPC): 7 weeks 0 and 7 weeks + 3 (3×) and 7 weeks + 2 (2 points=partial clearance: >50% reduction in the area of all treated wart)
- side effects reported (non-genital warts [3]; [5]): No significant side effects were reported other than skin rash at the sensitization site
- tolerability reported by patients (non-genital warts [3]; [5]): highly tolerable
- subjects who obtained a clinical response/improvement (non-genital warts [3]; DPCP group, 8 subjects, 0.4% sensitizing dose, then 0.04% gel weekly for 7 weeks): 100%
- warts with complete clearance (non-genital warts [3]; DPCP group, 11 of 25 warts, vs 1 of 15 vehicle treated warts, p=0.01): 44%
- warts with partial to complete clearance (non-genital warts [3]; DPCP group, 19/25 warts, 0.4% sensitizing dose, then 0.04% gel weekly for 7 weeks): 76%
- severe reactions at the application site (non-genital warts [3]; challenge dose of 0.04% DPCP after 0.4% sensitizing dose): did not result in observable severe reactions at the application site
- surrounding untreated warts completely cleared (non-genital warts [3]; one subject with numerous mosaic warts on the plantar foot, the 4 treated warts also completely cleared): > 50
